Laboratory results reported in patent US8993542B2, “Methods of treating viral infections” (priority 2008, dated 2015).
Where two headings read alike, the source gives them in different places.

How the values were obtained:
[1] = Toxicokinetics and 7-day toxicity after oral administration of CMX157 to rats; assay type: in vivo; conditions: rat plasma
HIV-1IIIB = experiment: TCID50 determination of drug-treated HIV-1IIIB; assay type: cell-based; set-up: TCID50, XTT Endpoint / TCID50, RT Endpoint / TCID50, P24 Endpoint: unit not given here
HIV = experiment: microbe, parasite or virus in culture; assay type: cell-based; conditions: for IC50: read-out: IC50
[2] = virus treated 2 hours with 125 nM drug
[3] = virus treated 2 hours with 250 nM drug
[4] = virus treated 2 hours with 500 nM drug
[5] = virus treated 2 hours with 1000 nM drug
[6] = PANEL 40, M41L + L210W + T215Y + M184V
[7] = PANEL 41, M41L + L210W + T215Y + M184V
[8] = PANEL 44, D67N + K70R + T215F + K219E + M184V

C[C@H](Cn1cnc2c(N)ncnc21)OCP(=O)(O)O [TFV, (R)-9-(2-phosphonylmethoxypropyl)adenine]
AUC0-24 ([1]; oral CMX157 10 mg/kg, day 1): 510.8 ng·h/mL
AUC0-∞ ([1]; oral CMX157 10 mg/kg, day 1): 775.2 ng·h/mL
Cmax ([1]; oral CMX157 10 mg/kg, day 1): 55.35 ng/mL
Tmax ([1]; oral CMX157 10 mg/kg, day 1): 2.0 h
t1/2elim ([1]; oral CMX157 10 mg/kg, day 1): 10.9 h
AUC0-24 ([1]; oral CMX157 10 mg/kg, day 7): 964.7 ng·h/mL
AUC0-∞ ([1]; oral CMX157 10 mg/kg, day 7): 1,226.9 ng · h/ml
Cmax ([1]; oral CMX157 10 mg/kg, day 7): 49.55 ng/mL
Tmax ([1]; oral CMX157 10 mg/kg, day 7): 2.4 h
t1/2elim ([1]; oral CMX157 10 mg/kg, day 7): 9.2 h
AUC0-24 ([1]; oral CMX157 30 mg/kg, day 1): 1,456.1 ng · h/ml
AUC0-∞ ([1]; oral CMX157 30 mg/kg, day 1): 1,808.1 ng · h/ml
Cmax ([1]; oral CMX157 30 mg/kg, day 1): 109.10 ng/mL
Tmax ([1]; oral CMX157 30 mg/kg, day 1): 4.0 h
t1/2elim ([1]; oral CMX157 30 mg/kg, day 1): 10.1 h
AUC0-24 ([1]; oral CMX157 30 mg/kg, day 7): 2,363.4 ng · h/ml
AUC0-∞ ([1]; oral CMX157 30 mg/kg, day 7): 2,790.5 ng · h/ml
Cmax ([1]; oral CMX157 30 mg/kg, day 7): 149.25 ng/mL
Tmax ([1]; oral CMX157 30 mg/kg, day 7): 4.0 h
t1/2elim ([1]; oral CMX157 30 mg/kg, day 7): 7.6 h
AUC0-24 ([1]; oral CMX157 100 mg/kg, day 1): 3,039.3 ng · h/ml
AUC0-∞ ([1]; oral CMX157 100 mg/kg, day 1): 3,639.5 ng · h/ml
Cmax ([1]; oral CMX157 100 mg/kg, day 1): 181.40 ng/mL
Tmax ([1]; oral CMX157 100 mg/kg, day 1): 12.0 h
t1/2elim ([1]; oral CMX157 100 mg/kg, day 1): 7.2 h
AUC0-24 ([1]; oral CMX157 100 mg/kg, day 7): 5,715.4 ng · h/ml
AUC0-∞ ([1]; oral CMX157 100 mg/kg, day 7): 7,373.4 ng · h/ml
Cmax ([1]; oral CMX157 100 mg/kg, day 7): 322.00 ng/mL
Tmax ([1]; oral CMX157 100 mg/kg, day 7): 12.0 h
t1/2elim ([1]; oral CMX157 100 mg/kg, day 7): 9.0 h
effect on viral replication (HIV-1IIIB; up to 1000 nM, 2 hours): no discernible effect
Fold Decrease From VC, P24 Endpoint (HIV-1IIIB; [2]): (0) Fold
Fold Decrease From VC, RT Endpoint (HIV-1IIIB; [2]): (1.1) Fold
Fold Decrease From VC, XTT Endpoint (HIV-1IIIB; [2]): (1.1) Fold
TCID50, P24 Endpoint (HIV-1IIIB; [2]): 43056
TCID50, RT Endpoint (HIV-1IIIB; [2]): 72449
TCID50, XTT Endpoint (HIV-1IIIB; [2]): 4027
Fold Decrease From VC, P24 Endpoint (HIV-1IIIB; [3]): (0) Fold
Fold Decrease From VC, RT Endpoint (HIV-1IIIB; [3]): (1.1) Fold
Fold Decrease From VC, XTT Endpoint (HIV-1IIIB; [3]): (0) Fold
TCID50, P24 Endpoint (HIV-1IIIB; [3]): 36227
TCID50, RT Endpoint (HIV-1IIIB; [3]): 72449
TCID50, XTT Endpoint (HIV-1IIIB; [3]): 4529
Fold Decrease From VC, P24 Endpoint (HIV-1IIIB; [4]): (0) Fold
Fold Decrease From VC, RT Endpoint (HIV-1IIIB; [4]): (0) Fold
Fold Decrease From VC, XTT Endpoint (HIV-1IIIB; [4]): (0) Fold
TCID50, P24 Endpoint (HIV-1IIIB; [4]): 37328
TCID50, RT Endpoint (HIV-1IIIB; [4]): 81289
TCID50, XTT Endpoint (HIV-1IIIB; [4]): 4529
Fold Decrease From VC, P24 Endpoint (HIV-1IIIB; [5]): (0) Fold
Fold Decrease From VC, RT Endpoint (HIV-1IIIB; [5]): (1.3) Fold
Fold Decrease From VC, XTT Endpoint (HIV-1IIIB; [5]): (0) Fold
TCID50, P24 Endpoint (HIV-1IIIB; [5]): 36227
TCID50, RT Endpoint (HIV-1IIIB; [5]): 64570
TCID50, XTT Endpoint (HIV-1IIIB; [5]): 4529
IC50 Fold Change (HIV; PANEL 1, WT): 0.79
IC50 (HIV; PANEL 1, WT): 613 nM
IC50 Fold Change (HIV; PANEL 2, WT): 0.85
IC50 (HIV; PANEL 2, WT): 652 nM
IC50 Fold Change (HIV; PANEL 3, 6 TAMs, no 184): 3.47
IC50 (HIV; PANEL 3, 6 TAMs, no 184): 2670 nM
IC50 Fold Change (HIV; PANEL 6, 6 TAMs + 184): 2.16
IC50 (HIV; PANEL 6, 6 TAMs + 184): 1670 nM
IC50 Fold Change (HIV; PANEL 7, 184V): 0.69
IC50 (HIV; PANEL 7, 184V): 534 nM
IC50 Fold Change (HIV; PANEL 9, 69ins, no 184): 22.00
IC50 (HIV; PANEL 9, 69ins, no 184): 17000 nM
IC50 Fold Change (HIV; PANEL 12, 69ins + 184): 4.72
IC50 (HIV; PANEL 12, 69ins + 184): 3640 nM
IC50 Fold Change (HIV; PANEL 14, 65R, no 184): 1.71
IC50 (HIV; PANEL 14, 65R, no 184): 1320 nM
IC50 Fold Change (HIV; PANEL 15, 65R + 184V): 1.22
IC50 (HIV; PANEL 15, 65R + 184V): 940 nM
IC50 Fold Change (HIV; PANEL 17, L74V): 0.62
IC50 (HIV; PANEL 17, L74V): 476 nM
IC50 Fold Change (HIV; PANEL 19, L74V + M184V): 0.29
IC50 (HIV; PANEL 19, L74V + M184V): 227 nM
IC50 Fold Change (HIV; PANEL 26, 151M, no 184): 2.26
IC50 (HIV; PANEL 26, 151M, no 184): 1740 nM
IC50 Fold Change (HIV; PANEL 28, 151M + 184): 1.43
IC50 (HIV; PANEL 28, 151M + 184): 1100 nM
IC50 Fold Change (HIV; PANEL 29, L74V − SDM): 0.69
IC50 (HIV; PANEL 29, L74V − SDM): 535 nM
IC50 Fold Change (HIV; PANEL 30, M184V − SDM): 0.54
IC50 (HIV; PANEL 30, M184V − SDM): 413 nM
IC50 Fold Change (HIV; PANEL 31, K65R − SDM): 2.01
IC50 (HIV; PANEL 31, K65R − SDM): 1550 nM
IC50 Fold Change (HIV; PANEL 33, T215Y): 2.39
IC50 (HIV; PANEL 33, T215Y): 1840 nM
IC50 Fold Change (HIV; PANEL 34, T215Y + M184V): 0.81
IC50 (HIV; PANEL 34, T215Y + M184V): 624 nM
IC50 Fold Change (HIV; PANEL 35, M41L + T215Y): 1.84
IC50 (HIV; PANEL 35, M41L + T215Y): 1420 nM
IC50 Fold Change (HIV; PANEL 37, M41L + T215Y + M184V): 1.34
IC50 (HIV; PANEL 37, M41L + T215Y + M184V): 1030 nM
IC50 Fold Change (HIV; PANEL 38, M41L + L210W + T215Y): 2.80
IC50 (HIV; PANEL 38, M41L + L210W + T215Y): 2160 nM
IC50 Fold Change (HIV; PANEL 39, M41L + L210W + T215Y): 3.01
IC50 (HIV; PANEL 39, M41L + L210W + T215Y): 2320 nM
IC50 Fold Change (HIV; [6]): 0.97
IC50 (HIV; [6]): 751 nM
IC50 Fold Change (HIV; [7]): 1.02
IC50 (HIV; [7]): 789 nM
IC50 Fold Change (HIV; PANEL 42, D67N + K70R): 2.56
IC50 (HIV; PANEL 42, D67N + K70R): 1970 nM
IC50 Fold Change (HIV; [8]): 0.91
IC50 (HIV; [8]): 703 nM
IC50 Fold Change (HIV; PANEL 45, L210W + T215Y): 1.34
IC50 (HIV; PANEL 45, L210W + T215Y): 1030 nM
IC50 Fold Change (HIV; PANEL 46, D67N + K70E): 0.96
IC50 (HIV; PANEL 46, D67N + K70E): 738 nM
IC50 Fold Change (HIV; PANEL 47, D67N + K70E + M184V): 0.64
IC50 (HIV; PANEL 47, D67N + K70E + M184V): 495 nM
IC50 Fold Change (HIV; PANEL 48, K70E + M184V): 0.61
IC50 (HIV; PANEL 48, K70E + M184V): 472 nM
